Reference: publication PMC12028158, “Synthesis and In Vitro Evaluation of the Anticancer Effect of Novel Phosphonium Vindoline Derivatives” (International Journal of Molecular Sciences, 2025)
Read-outs that look alike come from different tables or passages of the source.

Key:
Format in all cases: cell-based
NCI-H23 = experiment: NCI60 one-dose screen; settings: Homo sapiens
COLO 205 = experiment: NCI60 one-dose screen; settings: Homo sapiens
[1] = tested on: Non-small Cell Lung Cancer panel; experiment: NCI60 five-dose screen, panel mean; settings: Homo sapiens, read-out: GI50 Mean
SF-295 [2] = experiment: NCI60 one-dose screen; settings: Homo sapiens
Renal Cancer panel = experiment: NCI60 five-dose screen, panel mean; settings: Homo sapiens, read-out: GI50 Mean
CAKI-1 = experiment: NCI60 one-dose screen; settings: Homo sapiens
SK-OV-3 = experiment: NCI60 five-dose screen; settings: Homo sapiens
SK-MEL-28 = experiment: NCI60 five-dose screen; settings: Homo sapiens
CNS Cancer panel = experiment: NCI60 five-dose screen, panel mean; settings: Homo sapiens, read-out: GI50 Mean
SNB-19 = experiment: NCI60 five-dose screen; settings: Homo sapiens
SN12C = experiment: NCI60 five-dose screen; settings: Homo sapiens
Ovarian Cancer panel = experiment: NCI60 five-dose screen, panel mean; settings: Homo sapiens, read-out: GI50 Mean
HCT-15 [3] = experiment: NCI60 five-dose screen; settings: Homo sapiens
HT29 [4] = experiment: NCI60 one-dose screen; settings: Homo sapiens
MCF7 = experiment: NCI60 five-dose screen; settings: Homo sapiens
KM12 = experiment: NCI60 one-dose screen; settings: Homo sapiens
TK-10 = experiment: NCI60 one-dose screen; settings: Homo sapiens
HT29 [5] = experiment: NCI60 five-dose screen; settings: Homo sapiens, HT-29
MDA-MB-435 = experiment: NCI60 five-dose screen; settings: Homo sapiens
UACC-257 = experiment: NCI60 five-dose screen; settings: Homo sapiens
786-0 = experiment: NCI60 five-dose screen; settings: Homo sapiens
MOLT-4 [6] = experiment: NCI60 one-dose screen; settings: Homo sapiens
PC-3 = experiment: NCI60 one-dose screen; settings: Homo sapiens
BT-549 [7] = experiment: NCI60 five-dose screen; settings: Homo sapiens
Colon Cancer panel = experiment: NCI60 five-dose screen, panel mean; settings: Homo sapiens, read-out: GI50 Mean
NCI-H226 [8] = experiment: NCI60 one-dose screen; settings: Homo sapiens
SK-MEL-5 = experiment: NCI60 five-dose screen; settings: Homo sapiens
OVCAR-3 = experiment: NCI60 five-dose screen; settings: Homo sapiens
NCI-H226 [9] = experiment: NCI60 five-dose screen; settings: Homo sapiens
MDA-MB-468 = experiment: NCI60 one-dose screen; settings: Homo sapiens
RXF 393 = experiment: NCI60 one-dose screen; settings: Homo sapiens
OVCAR-4 = experiment: NCI60 five-dose screen; settings: Homo sapiens
HCT-116 = experiment: NCI60 five-dose screen; settings: Homo sapiens
A549/ATCC = experiment: NCI60 five-dose screen; settings: Homo sapiens
OVCAR-8 [10] = experiment: NCI60 one-dose screen; settings: Homo sapiens
UACC-62 = experiment: NCI60 five-dose screen; settings: Homo sapiens
HCC-2998 = experiment: NCI60 one-dose screen; settings: Homo sapiens
HCT-15 [11] = experiment: NCI60 one-dose screen; settings: Homo sapiens
SF-268 = experiment: NCI60 one-dose screen; settings: Homo sapiens
M14 [12] = experiment: NCI60 one-dose screen; settings: Homo sapiens
OVCAR-8 [13] = experiment: NCI60 five-dose screen; settings: Homo sapiens
M14 [14] = experiment: NCI60 five-dose screen; settings: Homo sapiens
BT-549 [15] = experiment: NCI60 one-dose screen; settings: Homo sapiens
SF-295 [16] = experiment: NCI60 five-dose screen; settings: Homo sapiens
SW-620 = experiment: NCI60 one-dose screen; settings: Homo sapiens
MOLT-4 [17] = experiment: NCI60 five-dose screen; settings: Homo sapiens
A498 = experiment: NCI60 five-dose screen; settings: Homo sapiens

## CC[C@]12C=CCN3CC[C@@]4(c5ccc(OC)cc5N(C)[C@H]4[C@@](O)(C(=O)OC)[C@@H]1OC(=O)CCCC[P+](c1ccc(F)cc1)(c1ccc(F)cc1)c1ccc(F)cc1)[C@@H]32 [10c]
NCI-H23; NCI-H23, 10 μM, one-dose, read-out: Growth percent
  activity at 10 µM: 23.6%
COLO 205; COLO 205, 10 μM, one-dose, read-out: Growth percent
  activity at 10 µM: -43.4%
[1]; mean over Non-small Cell Lung Cancer panel
  GI50: 24.3 µM
SF-295 [2]; SF-295, 10 μM, one-dose, read-out: Growth percent
  activity at 10 µM: 78.5%
Renal Cancer panel; mean over Renal Cancer panel
  GI50: 56.7 µM
CAKI-1; CAKI-1, 10 μM, one-dose, read-out: Growth percent
  activity at 10 µM: 73.2%
SK-OV-3; SK-OV-3, Ovarian Cancer, read-out: GI50
  GI50: 23.5 µM
SK-MEL-28; SK-MEL-28, Melanoma, read-out: GI50
  GI50: 8.28 µM
CNS Cancer panel; mean over CNS Cancer panel
  GI50: 18.8 µM
SNB-19; SNB-19, SNB-19, CNS Cancer, read-out: GI50
  GI50: 13 µM
SN12C; Renal Cancer, read-out: GI50
  GI50: 28.6 µM
Ovarian Cancer panel; mean over Ovarian Cancer panel
  GI50: 32.5 µM
HCT-15 [3]; HCT-15, Colon Cancer, read-out: GI50
  GI50: > 100 µM
HT29 [4]; HT-29, HT29, 10 μM, one-dose, read-out: Growth percent
  activity at 10 µM: 15.9%
MCF7; MCF7, MCF7, Breast Cancer, read-out: GI50
  GI50: 11.5 µM
KM12; KM12, 10 μM, one-dose, read-out: Growth percent
  activity at 10 µM: 16%
TK-10; TK-10, 10 μM, one-dose, read-out: Growth percent
  activity at 10 µM: 70.2%
HT29 [5]; HT29, Colon Cancer, read-out: GI50
  GI50: 15.4 µM
MDA-MB-435; MDA-MB-435, Melanoma, read-out: GI50
  GI50: 12.9 µM
UACC-257; UACC-257, UACC-257, Melanoma, read-out: GI50
  GI50: 5.59 µM
786-0; 786-0, Renal Cancer, read-out: GI50
  GI50: 34.1 µM
MOLT-4 [6]; MOLT-4, 10 μM, one-dose, read-out: Growth percent
  activity at 10 µM: 29.1%
PC-3; PC-3, 10 μM, one-dose, read-out: Growth percent
  activity at 10 µM: 15.7%
BT-549 [7]; BT-549, Breast Cancer, read-out: GI50
  GI50: 12.9 µM
Colon Cancer panel; mean over Colon Cancer panel
  GI50: 26.9 µM
NCI-H226 [8]; NCI-H226, 10 μM, one-dose, read-out: Growth percent
  activity at 10 µM: 38%
SK-MEL-5; SK-MEL-5, Melanoma, read-out: GI50
  GI50: 17.1 µM
OVCAR-3; OVCAR-3, Ovarian Cancer, read-out: GI50
  GI50: 9.3 µM
NCI-H226 [9]; NCI-H226, Non-small Cell Lung Cancer, read-out: GI50
  GI50: 27.3 µM
MDA-MB-468; MDA-MB-468, 10 μM, one-dose, read-out: Growth percent
  activity at 10 µM: -74.6%
RXF 393; RXF 393, 10 μM, one-dose, read-out: Growth percent
  activity at 10 µM: -9.93%
OVCAR-4; OVCAR-4, Ovarian Cancer, read-out: GI50
  GI50: 25.1 µM
HCT-116; HCT-116, Colon Cancer, read-out: GI50
  GI50: 25.9 µM
A549/ATCC; A549/ATCC, Non-small Cell Lung Cancer, read-out: GI50
  GI50: 33.8 µM
OVCAR-8 [10]; OVCAR-8, 10 μM, one-dose, read-out: Growth percent
  activity at 10 µM: 20%
UACC-62; UACC-62, Melanoma, read-out: GI50
  GI50: 11.3 µM
HCC-2998; HCC-2998, 10 μM, one-dose, read-out: Growth percent
  activity at 10 µM: 19.4%
HCT-15 [11]; HCT-15, 10 μM, one-dose, read-out: Growth percent
  activity at 10 µM: 102%
SF-268; SF-268, 10 μM, one-dose, read-out: Growth percent
  activity at 10 µM: 28.1%
M14 [12]; M14, 10 μM, one-dose, read-out: Growth percent
  activity at 10 µM: 19.7%
OVCAR-8 [13]; OVCAR-8, Ovarian Cancer, read-out: GI50
  GI50: 29.4 µM
M14 [14]; M14, Melanoma, read-out: GI50
  GI50: 14.7 µM
BT-549 [15]; BT-549, 10 μM, one-dose, read-out: Growth percent
  activity at 10 µM: -23.5%
SF-295 [16]; SF-295, CNS Cancer, read-out: GI50
  GI50: 30.6 µM
SW-620; SW-620, 10 μM, one-dose, read-out: Growth percent
  activity at 10 µM: 36.9%
MOLT-4 [17]; MOLT-4, Leukemia, read-out: GI50
  GI50: 14.7 µM
A498; A498, Renal Cancer, read-out: GI50
  GI50: > 100 µM

## CC[C@]12C=CCN3CC[C@@]4(c5ccc(OC)cc5N(C)[C@H]4[C@@](O)(C(=O)OC)[C@@H]1OC(=O)CCCC[P+](C1CCCCC1)(C1CCCCC1)C1CCCCC1)[C@@H]32 [10d]
NCI-H23; NCI-H23, read-out: Growth percent
  activity at 10 µM: -9.66%
COLO 205; COLO 205, read-out: Growth percent
  activity at 10 µM: -76.6%
[1]
  GI50: 2.95 µM
SF-295 [2]; SF-295, read-out: Growth percent
  activity at 10 µM: -19.6%
Renal Cancer panel
  GI50: 8.36 µM
CAKI-1; CAKI-1, read-out: Growth percent
  activity at 10 µM: -24.1%
SK-OV-3; SK-OV-3
  GI50: 2.28 µM
SK-MEL-28; SK-MEL-28
  GI50: 1.38 µM
CNS Cancer panel
  GI50: 2.6 µM
SNB-19; SNB-19
  GI50: 1.92 µM
SN12C
  GI50: 2.77 µM
Ovarian Cancer panel
  GI50: 11.4 µM
HCT-15 [3]; HCT-15
  GI50: 16.1 µM
HT29 [4]; HT-29, read-out: Growth percent
  activity at 10 µM: -24%
MCF7; MCF7
  GI50: 1.05 µM
KM12; KM12, read-out: Growth percent
  activity at 10 µM: -71.1%
TK-10; TK-10, read-out: Growth percent
  activity at 10 µM: -64.1%
HT29 [5]
  GI50: 1.43 µM
MDA-MB-435; MDA-MB-435
  GI50: 2.62 µM
UACC-257; UACC-257
  GI50: 1.57 µM
786-0; 786-0
  GI50: 5.43 µM
MOLT-4 [6]; MOLT-4, read-out: Growth percent
  activity at 10 µM: -5.16%
PC-3; PC-3, read-out: Growth percent
  activity at 10 µM: 3.69%
BT-549 [7]; BT-549
  GI50: 2.45 µM
Colon Cancer panel
  GI50: 3.8 µM
NCI-H226 [8]; NCI-H226, read-out: Growth percent
  activity at 10 µM: -22%
SK-MEL-5; SK-MEL-5
  GI50: 1.88 µM
OVCAR-3; OVCAR-3
  GI50: 1.93 µM
NCI-H226 [9]; NCI-H226
  GI50: 4.41 µM
MDA-MB-468; MDA-MB-468, read-out: Growth percent
  activity at 10 µM: -79%
RXF 393; RXF 393, read-out: Growth percent
  activity at 10 µM: -73.8%
OVCAR-4; OVCAR-4
  GI50: 2.72 µM
HCT-116; HCT-116
  GI50: 2.94 µM
A549/ATCC; A549
  GI50: 3.13 µM
OVCAR-8 [10]; OVCAR-8, read-out: Growth percent
  activity at 10 µM: -6.33%
UACC-62; UACC-62
  GI50: 1.53 µM
HCC-2998; HCC 2998, read-out: Growth percent
  activity at 10 µM: -87.8%
HCT-15 [11]; HCT-15, read-out: Growth percent
  activity at 10 µM: 75.2%
SF-268; SF-268, read-out: Growth percent
  activity at 10 µM: -70.5%
M14 [12]; M14, read-out: Growth percent
  activity at 10 µM: -83.5%
OVCAR-8 [13]; OVCAR-8
  GI50: 2.93 µM
M14 [14]; M14
  GI50: 2.2 µM
BT-549 [15]; BT-549, read-out: Growth percent
  activity at 10 µM: -97.4%
SF-295 [16]; SF-295
  GI50: 4.4 µM
SW-620; SW-620, read-out: Growth percent
  activity at 10 µM: 2.08%
MOLT-4 [17]; MOLT-4
  GI50: 1.72 µM
A498; A498
  GI50: 13.3 µM
